Target: M. tuberculosis Rho (MtbRho) (Mycobacterium tuberculosis, UniProt P9WHF3, M495L)
Format: biochemical

Nc1ncnc2c1ncn2[C@@H]1O[C@H](COP(=O)(O)OP(=O)(O)OP(=O)(O)O)[C@@H](O)[C@H]1O [ATP]
TLC NTP hydrolysis assay with poly[rC]: the M495L mutant hydrolyses ATP at a steady-state rate similar to that measured for EcRho

Reference: publication PMC8828861 (Communications Biology, 2022)
